The source of these data is US4761414A, “Substituted 1H-pyrimido[1,2-a-]-pyrido[3,4-e]pyrazine 6 oxides” (G. D. Searle & Co., priority 1986, dated 1988).

Molecules are shown by their SMILES. ≈ marks a conversion by molar mass, not a printed value. Where a name gives a salt, the structure may show the parent alone. Read-outs that look alike come from different tables or passages of the source.

Assay [1] deals with Campylobacter fetus ss. jejuni NCTC 10842. The assay is described as follows: MIC vs panel of anaerobes. Format: cell-based. The settings on record: NCTC10842, procedures of Example 40.
Another assay concerns Peptococcous magnus. The assay is described as follows: MIC vs panel of anaerobes. To be noted: procedures of Example 40. The format is cell-based.
For another assay, the system named is B. fragilis NCTC 10581. The assay is described as follows: MIC/MBC against Bacteroides fragilis strain A (96-well microtitre plates, anaerobic chamber). The format is cell-based. To be noted: for MBC / MIC: Bacteroides fragilis; for MBC: NCTC10581, 99.9% reduction in viable count; for MIC: NCTC10581, 48 h. How it is done:
(§1) The screening panel utilized in this Example consisted of 5 strains of Bacteroides fragilis. All assays were carried out in 96-well microtitre plates. If an isolate was obtained from either a culture collection or clinical source, the isolate was immediately inoculated into Wilkens-Chalgren broth (Oxoid) and incubated at 37° C. in an anaerobic chamber in an atmosphere of 85% nitrogen, 10% carbon dioxide, and 5% hydrogen for 48 hours. At the end of this time, the viable count was about 10^12 organisms/ml broth. A 1 ml aliquot of each culture was placed in an ampoule and quick frozen in acetone-dry ice mixture and stored in liquid nitrogen. When an inoculum was utilized in an assay, one of the ampoules was thawed and diluted with fresh broth to yield a suspension having a count of 5×10^5 organisms/ml. A 100 μl aliquot of this suspension was inoculated into each well of the microtitre plate. A 2 mg sample of the test compound was dissolved in 0.2 ml of a suitable solvent such as dimethylsulfoxide, polyethylene glycol 200 or methanol. […] After addition of the test solution the final inoculum level was 10^5 cells/ml. The plates were incubated for 48 hours at 37° C. in the anaerobic chamber. The Minimum Inhibitory Concentration (MIC) was read visually. The MIC is defined as the lowest concentration at which there is no detectable growth. The Minimum Bactericidal Concentration (MBC) was determined by taking 50 μl aliquot from each well and placing it in fresh medium. […] The strains of Bacteroides fragilis utilized in the above procedure are identified by letter in accordance with the following legend: |A B. fragilis NCTC 10581

Assay [2] deals with Costridium difficile NCIB 10666. The assay is described as follows: MIC vs panel of anaerobes. The format is cell-based, C. difficile. The settings on record: procedures of Example 40.
For another assay, the system named is Peptostreptococcus. Put plainly: MIC vs panel of anaerobes. To be noted: procedures of Example 40. Format: cell-based.
In the next assay the test system is B. fragilis WS-1. The assay is described as follows: MIC/MBC against Bacteroides fragilis strain E. Format: cell-based. How it is done:
as §1, with “|E” for “|A”, “WS-1*” for “NCTC 10581”

The next assay relates to B. fragilis NCTC 9343. Put plainly: MIC/MBC against Bacteroides fragilis strain B. The format is cell-based. How it is done:
as §1, with “|B” for “|A”, “9343” for “10581”

In assay [3] the test system is B. fragilis MZ-R ATCC 11295. The assay is described as follows: MIC/MBC against Bacteroides fragilis strain D. The format is cell-based. As for the experimental part:
The screening panel utilized in this Example consisted of 5 strains of Bacteroides fragilis. All assays were carried out in 96-well microtitre plates. If an isolate was obtained from either a culture collection or clinical source, the isolate was immediately inoculated into Wilkens-Chalgren broth (Oxoid) and incubated at 37° C. in an anaerobic chamber in an atmosphere of 85% nitrogen, 10% carbon dioxide, and 5% hydrogen for 48 hours. At the end of this time, the viable count was about 10^12 organisms/ml broth. A 1 ml aliquot of each culture was placed in an ampoule and quick frozen in acetone-dry ice mixture and stored in liquid nitrogen. When an inoculum was utilized in an assay, one of the ampoules was thawed and diluted with fresh broth to yield a suspension having a count of 5×10^5 organisms/ml. A 100 μl aliquot of this suspension was inoculated into each well of the microtitre plate. A 2 mg sample of the test compound was dissolved in 0.2 ml of a suitable solvent such as dimethylsulfoxide, polyethylene glycol 200 or methanol. […] After addition of the test solution the final inoculum level was 10^5 cells/ml. The plates were incubated for 48 hours at 37° C. in the anaerobic chamber. The Minimum Inhibitory Concentration (MIC) was read visually. The MIC is defined as the lowest concentration at which there is no detectable growth. The Minimum Bactericidal Concentration (MBC) was determined by taking 50 μl aliquot from each well and placing it in fresh medium.

The subject of the next assay is B. fragilis NCTC 9344. Put plainly: MIC/MBC against Bacteroides fragilis strain C. Format: cell-based. How it is done: as §1, with “|C” for “|A”, “9344” for “10581”
The next assay deals with P. anaerobius. The assay is described as follows: MIC vs panel of anaerobes. The format is cell-based. To be noted: Peptostreptococcus anaerobius, procedures of Example 40.
Assay [4] relates to Clostridium perfringens NCTC 523. Put plainly: microbe, parasite or virus in culture. Format: cell-based. The settings on record: Clostridium perfringens NCTC 523; procedures of Example 40; bishydrochloride.
Assay [5] relates to Fusobacterium necrophorum ATCC 11295. The assay is described as follows: MIC vs panel of anaerobes. Format: cell-based. The settings on record: Fusobacterium necrophorum ATCC 11295; procedures of Example 40; bishydrochloride.
Assay [6] has as its system Campylobacter fetus ss. jejuni ATCC 29428. The assay is described as follows: MIC vs panel of anaerobes. Format: cell-based. The settings on record: ATCC29428, procedures of Example 40.
The subject of assay [7] is B. melanogenicus ATCC 15032. The assay is described as follows: MIC vs panel of anaerobes. The format is cell-based. The settings on record: procedures of Example 40.
A further assay has as its system B. fragilis 23745. To be noted: p.o., after infection and twice daily for 2 days; log CFU/ml liver homogenate; test compound; bishydrochloride.
Assay [8] relates to Clostridium perfringens NCTC 8237. The assay is described as follows: microbe, parasite or virus in culture. The format is cell-based. To be noted: Clostridium perfringens NCTC 8237; procedures of Example 40; bishydrochloride.

Broadly, the MBC is the smallest concentration meeting the test's criterion for killing. Regarding `Cc1ncc([N+](=O)[O-])n1CCO` [Metronidazole, metronidazole, reference compound], the MIC is 3.1 µg/mL (≈ 18.1 µM) in assay [1]; below 0.8 µg/mL in the assay on Peptococcous magnus; below 0.8 µg/mL with B. fragilis NCTC 10581 (48 hours, 37° C., anaerobic); below 0.8 µg/mL in assay [2] (Clostridioides difficile, NCIB10666, C. difficile NCIB 10666, read-out: MIC); 100 µg/mL (≈ 584 µM) in the assay on Peptostreptococcus. Also, in the assay on B. fragilis NCTC 10581 (99.9% reduction in viable count), the “MBC, strain A” value was determined as 1.5 mg/L (≈ 8.76 µM). Moreover, the “MIC, strain A” value in the assay with B. fragilis NCTC 10581 (48 hours, 37° C., anaerobic) is on record as 1.5 mg/L (≈ 8.76 µM). Further, the MBC against B. fragilis NCTC 10581 is below 0.8 µg/mL.

With `CCC1(C)CN=C2C(c3ccc(C)cc3)=[N+]([O-])c3cccnc3N2C1` (stereo not shown) [Example 35, 2,3-Dihydro-2-ethyl-2-methyl-5-(4-methylphenyl)-1H-pyrimido[1,2-a]pyrido[3,2-e]pyrazine 6-oxide], the MBC against B. fragilis WS-1 (WS1, 99.9% reduction in viable count) was below 0.8 µg/mL; in the assay on B. fragilis NCTC 9343 (NCTC9343, 99.9% reduction in viable count) it was below 0.8 µg/mL; in assay [3] (ATCC11295, 99.9% reduction in viable count) it was below 0.8 µg/mL; against B. fragilis NCTC 10581, below 0.8 µg/mL; in the assay with B. fragilis NCTC 9344 (NCTC9344, 99.9% reduction in viable count), below 0.8 µg/mL. Further, the MIC with B. fragilis WS-1 (WS1, 48 h, 48 hours, 37° C., anaerobic) is below 0.8 µg/mL; against B. fragilis NCTC 9343 (NCTC9343, 48 h, 48 hours, 37° C., anaerobic), below 0.8 µg/mL; in assay [3] (ATCC11295, 48 h, 48 hours, 37° C., anaerobic), below 0.8 µg/mL; in the assay on B. fragilis NCTC 10581 (48 hours, 37° C., anaerobic) it was below 0.8 µg/mL; in the assay with B. fragilis NCTC 9344 (NCTC9344, 48 h, 48 hours, 37° C., anaerobic), below 0.8 µg/mL.

In the case of `CC1(C)CN=C2C(c3ccccc3)=[N+]([O-])c3cccnc3N2C1` [Example 39, 2,3-dihydro-2,2-dimethyl-5-phenyl-1H-pyrimido[1,2-a]pyrido[3,2-e]pyrazine 6-oxide bishydrochloride], the MIC against P. anaerobius was found to be 100 µg/mL; in assay [4] it was 1.5 µg/mL; in [1], 25 µg/mL; in assay [5] it was 1.5 µg/mL; in assay [6] it was 50 µg/mL; in [7] it was 100 µg/mL. Further, the MIC in assay [2] (C. difficile NCIB 10666, bishydrochloride) came out at 1.5 µg/mL; in assay [8] it was 6.2 µg/mL. Besides, the “DOSE GIVING 1 LOG REDUCTION” value in the assay with B. fragilis 23745 came to 0.7 mg/kg. For the same molecule, the “DOSE GIVING 1 LOG REDUCTION (molar)” value in the assay with B. fragilis 23745 was 1.8 μM/Kg.
